Consider 22 molecules from patent publication US20090318385A1, “Pyrazolopyride derivative and phosphodiesterase ( pde) inhibitors containing the same as active ingredient” (priority 2006, published 2009).

Molecules are shown by their SMILES.

One series has as its target T1, PDE4B catalytic domain (Homo sapiens, UniProt Q07343).
T1 construct: The cDNA of PDE4B catalytic domain (hereinafter abbreviated as Cat) was isolated from human RNA by RT-PCR; made in house; host or cells: Sf9 insect cells (baculovirus, Bac-to-Bac)
The series is described as follows: Phosphodiesterase inhibitory activity (recombinant PDE4Bcat, [3H]cAMP). Format: biochemical. The following applies: 30° C. for 20 minutes, read-out: IC50 (μmol/L) PDE4. The text has this:
The cDNA of PDE4B catalytic domain (hereinafter abbreviated as Cat) was isolated from human RNA by RT-PCR. The isolated cDNA fragments were inserted into Sf9 insect cells using Gateway system (product of Invitrogen Corporation) and Bac-to-Bac (registered trademark) Baculovirus Expression system (product of Invitrogen Corporation) to express a target PDE protein. The recombinant PDE4Bcat was purified from the culture supernatants or cell extracts of Sf9 cells expressing high levels of the PDE protein by ion exchange chromatography and was used for the following experiments.
A 4 mmol/L solution of each test compound was serially diluted four-fold with a 15% DMSO solution to prepare solutions with concentrations of 15 nmol/L to 4 mmol/L (the final concentrations used in the experiments were 1.5 nmol/L to 400 μmol/L). 10 μL of the prepared test compound solutions, [^3H] cAMP diluted with a buffer solution (40 mmol/L Tris-HCl (pH: 7.4), 10 mmol/L MgCl2), and 40 μL of the recombinant human PDE protein (2×10^−6 units, 1 unit is defined as the amount of PDE that breaks down 1 μmol/L of cAMP in one minute under the conditions of a pH of 7.5 and 30° C.) were added to a 96-well plate. The mixtures were reacted at 30° C. for 20 minutes. Then, the resultant mixtures were reacted at 65° C. for 2 minutes. Subsequently, […] of 1 mg/mL 5′-nucleotidase (Crotalusatrox venom, product of Sigma) was added to the mixtures, and the mixtures were reacted at 30° C. for 10 minutes. After completion of the reaction, 200 μL of a solution of Dowex (300 mg/mL Dowex 1x8-400 (product of Sigma Aldrich), 33% ethanol) was added to the mixtures, and the mixtures were shaken at 4° C. for 20 minutes. Subsequently, 200 μL of MicroScint 20 (product of Packard) was added to the mixtures, and measurement was performed using a scintillation counter (Topcount, product of Packard). IC50 values were calculated using Graph Pad Prism v3.03 (product of GraphPad Software). When 1 μmol/L>the IC50 value≧0.1 μmol/L, the results were represented by “+.” When 0.1 μmol/L>the IC50 value, the results were represented by “++.”

For series [1], the system named is histamine-induced bronchoconstriction. The series can be described thus: Histamine-induced airway contraction reaction in guinea pigs. Format: in vivo. The settings on record: test compound 1 mg/kg i.v., histamine 12.5 μg/kg i.v., airflow 30 seconds after administration. As to the method: Guinea pigs were anesthetized with pentobarbital (30 mg/kg, i.p.). A cannula for intravenous administration, a cannula for collecting blood and measuring blood pressure, and a tracheal cannula were inserted into the left external jugular vein, right internal carotid artery, and trachea, respectively. The guinea pigs were maintained on artificial respiration under the conditions of 60 times/min and 10 mL/kg/stroke. The airflow from the side branch of the tracheal cannula was measured by a bronchospasm transducer (Ugo-Basile) and recorded on a computer via Power Lab (ADInstruments Japan). The guinea pigs were immobilized with gallamine (10 mg/kg, i.v.), and histamine was administered at 10-minute intervals (12.5 μg/kg, i.v.). After the histamine-induced bronchoconstriction was constant, one of the test compounds (1 mg/kg, i.v.) dissolved in DMSO was administered. We examined the inhibitory action of test compounds on histamine-induced bronchoconstriction 30 seconds after compounds administration. Bronchoconstriction was recorded as the value of airflow, and the results were represented by the ratio of the maximum value of the histamine-induced airflow 30 seconds after the administration to the maximum value of the airflow before the administration. When the inhibition ratio≧90%, the results were represented by “+++.” When 90%>the inhibition ratio≧70%, the results were represented by “++.” When 70%>the inhibition ratio≧30%, the results were represented by “+.”

Series [2] deals with total number of leukocytes in bronchoalveolar lavage fluid after LPS inhalation. The series can be described thus: LPS acute inflammation model in rats. The series is classed as in vivo. The following applies: Rattus norvegicus, Leukocyte, po, 3 mg/kg orally one hour before LPS inhalation, total leukocytes in BALF 3 hours after LPS inhalation, read-out: Inhibition ratio. The method, then:
3 mg/kg of the compounds were orally administered to rats one hour before inhalation of lipopolysaccharide (LPS) from E. coli serotype 055:B5, rats were inhalted nebulizing LPS solution (50 mL) by nebulizer for 30 minutes. Then, 3 hours after the LPS inhalation, rats were euthanized with 20% urethane (5 ml/rat, i.p.) 5 ml of physiological saline for bronchoalveolar lavage was injected into the bronchoalveolar space through the airway, and the bronchoalveolar space was washed 3 times using a 5 mL syringe. This procedure was repeated twice, and the solution was collected as bronchoalveolar lavage fluid (BALF). The collected BALF was centrifuged at 1,200 rpm and 4° C. for 10 minutes (Hirtachi; himac CR 5 DL). The sediment was re-suspended in 10 mL of a 0.1% bovine serum albumin-physiological saline, and an equivalent amount of Turk's solution was added to the suspension to stain leukocytes. The total number of leukocytes was counted under a microscope to determine the inhibition ratio. When the inhibition ratio≧60%, the results were represented by “++.” When 60%>the inhibition ratio≧30%, the results were represented by “+.”

T1 sequence (Q07343 330-659 limits assumed): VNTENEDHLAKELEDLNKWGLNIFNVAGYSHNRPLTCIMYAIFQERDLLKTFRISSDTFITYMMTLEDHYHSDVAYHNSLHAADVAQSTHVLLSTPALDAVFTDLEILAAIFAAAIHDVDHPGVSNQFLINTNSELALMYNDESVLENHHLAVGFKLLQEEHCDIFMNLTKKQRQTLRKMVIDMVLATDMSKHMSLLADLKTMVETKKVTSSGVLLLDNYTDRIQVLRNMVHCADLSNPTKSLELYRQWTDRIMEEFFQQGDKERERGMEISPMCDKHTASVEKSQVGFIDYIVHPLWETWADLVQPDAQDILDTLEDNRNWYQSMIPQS

As for `COc1ccc(C(=O)Cc2ccncc2)c2cc(C(F)(F)F)nn12` [80 (90), 1-(7-Methoxy-2-trifluoromethylpyrazolo[1,5-a]pyridin-4-yl)-2-(pyridin-4-yl)ethanone], the IC50 at PDE4B catalytic domain is less than 0.1 µmol/L. The Inhibition ratio entry in series [1] is recorded as “+++ (When the inhibition ratio≧90%, the results were represented by “+++.”)”.

`COc1ccc(/C(=C/c2ccncc2)c2ccccc2)c2cc(C(F)(F)F)nn12` [Example 84, (E)-7-methoxy-4-[1-phenyl-2-(pyridin-4-yl)vinyl]-2-trifluoromethylpyrazolo[1,5-a]pyridine]: the IC50 on PDE4B catalytic domain is less than 0.1 µmol/L.

Take `COc1ccc(C(Cc2ccncc2)c2ccccc2)c2cc(C(F)(F)F)nn12` (centres unmarked) [Example 86, 7-Methoxy-4-[1-phenyl-2-(pyridin-4-yl)ethyl]-2-trifluoromethylpyrazolo[1,5-a]pyridine]: the IC50 at PDE4B catalytic domain was less than 0.1 µmol/L.

For the molecule `COc1ccc(C(O)Cc2c(Cl)cncc2Cl)c2cc(C(F)(F)F)nn12` (centres unmarked) [Example 87, 2-(3,5-Dichloropyridin-4-yl)-1-(7-methoxy-2-trifluoromethylpyrazolo[1,5-a]pyridin-4-yl)ethanol], the IC50 at PDE4B catalytic domain was less than 0.1 µmol/L.

As for `COc1ccc(CCc2cc[n+]([O-])cc2)c2cc(C(F)(F)F)nn12` [Example 91, 4-(2-(7-Methoxy-2-(trifluoromethyl)pyrazolo[1,5-a]pyridin-4-yl)ethyl)pyridine 1-oxide], the IC50 at PDE4B catalytic domain is less than 0.1 µmol/L. The inhibition in vivo at 3 mg/kg in series [2] was not below 60%.

On to `COc1ccc(C(=O)Cc2c(Cl)c[n+]([O-])cc2Cl)c2cc(C(F)(F)F)nn12` [Example 92, 3,5-Dichloro-4-(2-(7-methoxy-2-(trifluoromethyl)pyrazolo[1,5-a]pyridin-4-yl)-2-oxoethyl)pyridine 1-oxide], for which, on PDE4B catalytic domain, the IC50 is less than 0.1 µmol/L. Also, in series [2], the inhibition in vivo at 3 mg/kg was not below 60%.

In the case of `COc1ccc(C(=O)Cc2cc[n+]([O-])cc2)c2cc(C(F)(F)F)nn12` [Example 93, 4-(2-(7-Methoxy-2-(trifluoromethyl)pyrazolo[1,5-a]pyridin-4-yl)-2-oxoethyl)pyridine 1-oxide], the melting point (as a rule, the temperature, or range, at which the solid turns liquid) was 157 to 161 °C (dec.). Also, at PDE4B catalytic domain, the IC50 was less than 0.1 µmol/L. Further, the inhibition in vivo at 3 mg/kg in series [2] is not below 60%.

`COc1ccc(CCc2c(Cl)cncc2Cl)c2cc(C(F)(F)F)nn12` [Example 95, 4-(2-(3,5-Dichloropyridin-4-yl)ethyl)-7-methoxy-2-(trifluoromethyl)pyrazolo[1,5-a]pyridine]: the melting point was 158 to 160 °C (dec.).

For the molecule `COc1ccc(C(=O)Cc2ccncc2Cl)c2cc(C(F)(F)F)nn12` [Example 97, 2-(3-Chloropyridin-4-yl)-1-(7-methoxy-2-(trifluoromethyl)pyrazolo[1,5-a]pyridin-4-yl)ethanone], the melting point is 188 to 191 °C.

For the molecule `CNc1ccc(C(=O)Cc2c(Cl)cncc2Cl)c2cc(C(F)(F)F)nn12` [Example 99, 2-(3,5-Dichloropyridin-4-yl)-1-(7-(methylamino)-2-(trifluoromethyl)pyrazolo[1,5-a]pyridin-4-yl)ethanone], the melting point lay in the range of 220 to 223 °C. The IC50 at PDE4B catalytic domain was less than 0.1 µmol/L.

Consider `CN(C)c1ccc(C(=O)Cc2c(Cl)cncc2Cl)c2cc(C(F)(F)F)nn12` [Example 100, 2-(3,5-Dichloropyridin-4-yl)-1-(7-(dimethylamino)-2-(trifluoromethyl)pyrazolo[1,5-a]pyridin-4-yl)ethanone], for which the melting point was in the range of 234 to 238 °C.

Turning to `COc1ccc(CCc2c(Cl)cncc2Cl)c2cc(C(F)F)nn12` [Example 102, 4-(2-(3,5-Dichloropyridin-4-yl)ethyl)-2-(difluoromethyl)-7-methoxypyrazolo[1,5-a]pyridine], the melting point lay in the range of 153 to 156 °C.

As to `COc1ccc(CCc2ccncc2)c2cc(C(F)F)nn12` [Example 104, 2-(Difluoromethyl)-7-methoxy-4-(2-(pyridin-4-yl)ethyl)pyrazolo[1,5-a]pyridine], the melting point lay within 121 to 123 °C.

For `COc1ccc(C(=O)Cc2c(Cl)cncc2Cl)c2cc(C(F)F)nn12` [Example 107, 2-(3,5-dichloropyridin-4-yl)-1-(2-(difluoromethyl)-7-methoxypyrazolo[1,5-a]pyridin-4-yl)ethanone], the melting point was 208 to 211 °C (dec.).

For the molecule `COc1ccc(C(=O)Cc2c(Cl)c[n+]([O-])cc2Cl)c2cc(C(F)F)nn12` [Example 108, 3,5-Dichloro-4-(2-(2-(difluoromethyl)-7-methoxypyrazolo[1,5-a]pyridin-4-yl)-2-oxoethyl)pyridine 1-oxide], the IC50 on PDE4B catalytic domain was less than 0.1 µmol/L. The inhibition in vivo at 3 mg/kg in series [2] is not below 60%.

Regarding `COc1ccc(C(=O)Cc2ccncc2)c2cc(C(F)F)nn12` [Example 109, 1-(2-(Difluoromethyl)-7-methoxypyrazolo[1,5-a]pyridin-4-yl)-2-(pyridin-4-yl)ethanone], the melting point is 186 to 191 °C (dec.).

Consider `COc1ccc(C(=O)Cc2ccncc2Cl)c2cc(C(F)F)nn12` [Example 111, 2-(3-Chloropyridin-4-yl)-1-(2-(difluoromethyl)-7-methoxypyrazolo[1,5-a]pyridin-4-yl)ethanone], for which the melting point is 191 to 194 °C (dec.).

`COc1ccc(C(=O)Cc2ccncc2)c2cc(C3CC3)nn12` [Example 121, 1-(2-Cyclopropyl-7-methoxypyrazolo[1,5-a]pyridin-4-yl)-2-(pyridin-4-yl)ethanone]: the IC50 on PDE4B catalytic domain was less than 0.1 µmol/L. The inhibition in vivo at 3 mg/kg in series [2] was not below 60%.

For `COc1ccc(C(=O)Cc2c(Cl)cncc2Cl)c2c(Cl)c(C3CC3)nn12` [Example 122, 1-(3-Chloro-2-cyclopropyl-7-methoxypyrazolo[1,5-a]pyridin-4-yl)-2-(3,5-dichloropyridin-4-yl)ethanone], the IC50 at PDE4B catalytic domain was less than 0.1 µmol/L. In series [2], the inhibition in vivo at 3 mg/kg is not below 60%.

On to `CNc1ccc(C(=O)Cc2c(Cl)cncc2Cl)c2cc(C3CC3)nn12` [Example 123, 1-(2-Cyclopropyl-7-(methylamino)pyrazolo[1,5-a]pyridin-4-yl)-2-(3,5-dichloropyridin-4-yl)ethanone], for which the melting point lay in the range of 196 to 200 °C.

`CN(C)c1ccc(C(=O)Cc2c(Cl)cncc2Cl)c2cc(C3CC3)nn12` [Example 124, 1-(2-Cyclopropyl-7-(dimethylamino)pyrazolo[1,5-a]pyridin-4-yl)-2-(3,5-dichloropyridin-4-yl)ethanone] returned a melting point of 216 to 220 °C.

On to `COc1ccc(C(=O)Cc2c(Cl)c[n+]([O-])cc2Cl)c2cc(C#N)nn12` [Example 142, 3,5-Dichloro-4-(2-(2-cyano-7-methoxypyrazolo[1,5-a]pyridin-4-yl)-2-oxoethyl)pyridine 1-oxide], for which, at PDE4B catalytic domain, the IC50 is less than 0.1 µmol/L. Besides, the inhibition in vivo at 3 mg/kg in series [2] is not below 60%.
